The text below walks through data of article PMC11899342, “Novel Triazeneindole Antibiotics: Synthesis and Hit-to-Lead Optimization” (International Journal of Molecular Sciences, 2025).

Series [1] can be described thus: Caco-2 cell monolayer permeability. Format: in vitro ADME, human. The following applies: human, Caco-2; read-out: Asymmetry index. How it is done:
(§1) The MultiScreen Caco-2 (ATCC cat. # HTB-37) test system (Millipore, St. Charles, MO, USA) was used to study the transport through a cell monolayer, according to the manufacturer’s instructions. Briefly, a study of transport from the apical membrane to the basolateral (A-B) area and in the opposite direction (B-A) was carried out on a 21-day culture of Caco-2 at a 1 µM concentration of the tested compound for 2 h. Monolayer integrity was verified by measuring electrical resistance (TEER) using a Millicell-ERS instrument. A TEER value of at least 3 KOhm/well was determined to be acceptable.
(Caco-2 monolayers are a common model of the intestinal barrier.)

In the next series the test system is Caco-2 cells. Description: Caco-2 cell monolayer permeability. Format: in vitro ADME, human. The procedure: as §1
Series [2] is described as follows: Stability in artificial intestinal juice. Type of series: in vitro ADME. The procedure:
During ADME studies, the concentration of the compounds was analyzed using ultra-performance liquid chromatography (UPLC) coupled with tandem mass spectrometry (MS/MS) in the multiple reaction monitoring (MRM) mode. A quantitative analysis was performed using the internal standard (IS) calibration method, with tolbutamide as the IS.
The analyses were carried out on a system composed of an Agilent 1290 Infinity UPLC system (Agilent Technologies, USA) connected by ESI interface to a tandem quadrupole mass spectrometer QTRAP 6500 (AB Sciex Corp, Framingham, MA, USA). The separation was conducted on an YMC Triart C18 50 × 2 mm, 1.9 μm column, which was kept at 35 °C. The samples were cooled to 8 °C in an autosampler, and aliquots of 1 µL were delivered onto the column. Elution was performed using gradients of A (0.1% formic acid in water) and B (0.1% formic acid in acetonitrile), at the flow rate 0.35 mL/min. […] The declustering potential was 31 V for BX and 93 V for IS, resepectively; the collision energy was attuned to 17 eV; the collision cell exit potential was 10 V for BX and 8 V for IS MRM, respectively; the analyses were recorded for 305 → 234 (BX) and 271 → 172 (tolbutamide). […]

Series [3] can be described thus: Single-dose acute toxicity, intragastric administration. Format: in vivo, rat. The following applies: both sexes, Wistar, rat, in vivo, po; rats, intragastric, single dose; read-out: maximum tolerated dose. How it is done: Before administration, the BX-SI043 substance was resuspended in a 1% starch solution. The animals in the treatment groups received suspensions intragastrically in doses of 2000 mg/kg (administered in two equal doses, with a 30–40 min interval), 1000 mg/kg, 600 mg/kg, and 300 mg/kg (administered in single doses).
The animals were monitored daily for any abnormalities. On the 2nd, 7th, and 13th days after administration, the animals were clinically evaluated and weighed, and the consumption of feed and water were measured. On the 14th day, the behavior of the animals was evaluated. On the 15th day, the animals were euthanized, and the lungs (with trachea), heart, thymus, liver, kidneys, spleen, stomach, small intestine, colon, brain, adrenal glands, and testes/ovaries were fixed in 10% neutral formalin for histological evaluation.

The next series deals with T1, hERG K+-ion channel (Homo sapiens, UniProt Q12809).
T1 construct: purchased Invitrogen
Nature of the series: Predictor hERG fluorescence polarization assay. Format: binding. The following applies: tracer displacement, up to 50 µM. The procedure:
Determination of the binding of the BX-SI043 compound to the hERG K^+-ion channel was carried out using the Predictor hERG Fluorescence Polarization Assay Kit (Invitrogen, USA) at concentrations of 0.016, 0.08, 0.4, 2, 10, and 50 µM, according to the manufacturer’s instructions. This method is based on the measurement of the changing fluorescence polarization caused by the displacement of the high-affinity fluorescent tracer by the tested compound. A selective inhibitor of the hERG channels E-4031 was used as a control compound. Briefly, a 2X solution of membranes, containing hERG channels, was prepared and placed in 384-well plate. The tested substance, the control substance, the buffer, and the tracer were placed in the corresponding wells and incubated in the dark at room temperature for 2 h. Fluorescence polarization measurement was conducted on an Infinite M1000 PRO plate reader with the following parameters: 10 flashes per well; an excitation center wavelength of 530 nm, with a bandwidth of 5 nm; an emission center wavelength of 585 nm, with a bandwidth of […]. The calculation of the IC50 half-maximal inhibition concentration values was performed in GraphPad Prism 6.0 (GraphPad Software Inc.), based on the equations of the experimental curves.

T1 sequence (Q12809 whole entry): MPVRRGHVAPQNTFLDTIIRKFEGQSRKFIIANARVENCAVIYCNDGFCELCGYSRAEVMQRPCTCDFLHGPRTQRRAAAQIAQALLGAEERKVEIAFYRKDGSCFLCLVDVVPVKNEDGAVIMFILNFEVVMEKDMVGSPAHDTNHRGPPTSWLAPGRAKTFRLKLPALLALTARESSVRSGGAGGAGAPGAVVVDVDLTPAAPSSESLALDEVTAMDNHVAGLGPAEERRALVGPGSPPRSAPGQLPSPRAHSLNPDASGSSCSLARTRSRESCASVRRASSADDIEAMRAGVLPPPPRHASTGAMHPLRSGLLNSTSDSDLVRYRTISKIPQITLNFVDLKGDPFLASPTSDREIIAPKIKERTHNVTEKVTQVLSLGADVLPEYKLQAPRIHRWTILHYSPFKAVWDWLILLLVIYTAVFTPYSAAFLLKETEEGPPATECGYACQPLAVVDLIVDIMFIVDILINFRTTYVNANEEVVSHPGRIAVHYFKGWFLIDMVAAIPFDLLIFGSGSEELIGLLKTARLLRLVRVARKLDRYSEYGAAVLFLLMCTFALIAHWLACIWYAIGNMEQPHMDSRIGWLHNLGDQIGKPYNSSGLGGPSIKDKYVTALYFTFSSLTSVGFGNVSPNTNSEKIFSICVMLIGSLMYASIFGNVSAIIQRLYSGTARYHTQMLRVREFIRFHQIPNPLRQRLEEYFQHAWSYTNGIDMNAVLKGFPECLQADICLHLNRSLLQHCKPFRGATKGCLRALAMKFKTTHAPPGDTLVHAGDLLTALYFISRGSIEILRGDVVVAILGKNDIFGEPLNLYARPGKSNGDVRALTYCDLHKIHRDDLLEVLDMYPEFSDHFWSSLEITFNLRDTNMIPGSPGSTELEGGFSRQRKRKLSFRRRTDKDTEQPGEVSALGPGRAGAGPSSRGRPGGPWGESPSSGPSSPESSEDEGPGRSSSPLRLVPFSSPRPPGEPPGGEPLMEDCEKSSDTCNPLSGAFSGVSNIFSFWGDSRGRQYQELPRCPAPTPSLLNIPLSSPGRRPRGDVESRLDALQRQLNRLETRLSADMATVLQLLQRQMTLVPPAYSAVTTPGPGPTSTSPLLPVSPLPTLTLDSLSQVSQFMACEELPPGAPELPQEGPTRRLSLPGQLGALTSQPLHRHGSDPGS

As a reminder, the IC50 is the concentration that gives 50% inhibition. As for `CCOC(=O)c1[nH]c2cc(F)ccc2c1/N=N/N1CCCC1` [BX-SI043, Ethyl (E)-6-fluoro-3-(pyrrolidin-1-yldiazenyl)-1H-indole-2-carboxylate], the efflux ratio at 2 h, 1 µM in series [1] was determined as 0.37. Also, the “Papp A-B” value in the series with Caco-2 cells (Caco-2, 1 µM, 2 h) is given as 0.51 10^-6 sm/s. The “Papp B-A” value in the series with Caco-2 cells (Caco-2, 1 µM, 2 h) is reported as 0.19 10^-6 sm/s. In addition, the Mass balance with Caco-2 cells (Caco-2, first value: A-B / apical) worked out at 49%; in the series on Caco-2 cells (Caco-2, first value: A-B / apical, listed as ВХ-SI043), 49%; with Caco-2 cells (Caco-2, second value: B-A / basolateral), 25.1%. Further, in series [2] (artificial intestinal juice with pancreatin, pH 6.8, pancreatin, 37 °C, 1 μM, read-out: t1/2 in artificial intestinal juice (converted)), the half-life at 1 µM was 1 h. Also, the “metabolism in intestinal juice after 4 h of incubation” value in series [2] (pH 6.8, 37 °C, 4 h) is given as “fully metabolized”. Further, in series [3], the MTD at 14 days stood at 600 mg/kg. Besides, the IC50 on hERG K+-ion channel was > 50 µM.
